The text below walks through data of US8247378B2, “Homing peptide for tumor vasculature” (The Chinese University of Hong Kong, priority 2009, dated 2012).

Where no end group is shown, it is not given here. The star is where a group is joined. FITC = O=C1OC2(c3ccc(O)cc3Oc3cc(O)ccc32)c2ccc(NC(=S)*)cc21

Data set [1] relates to orthotopic colorectal tumors. Put plainly: Organ level imaging of tumor tissues with FITC-labeled peptide. In kind it is in vivo, mice. The method, then: Imaging of tissue was done under a blue light, by using the imaging system of KODAK Image Station 2000MM.
To determine whether FITC-labeled TCP-1 accumulated into the tumor tissues can be visualized at the organ level, tumor-bearing mice were injected intravenously with FITC-labeled TCP-1, control peptide or PBS alone. More specifically, tumor-bearing mice were i.v. injected with 500 nmol fluorescein-conjugated peptide (in 500 μl PBS). The peptide was allowed to circulate for 20 hour. The mice were killed, and various tissues were excised and examined for fluorescence. Organ imaging was done under a blue light, by using the imaging system of KODAK Image Station 2000MM.
Further, FITC-labeled TCP-1 could specifically accumulate in the tumor tissues with various volumes (diameter 2 mm, 6 mm, 8 mm tested) (FIG. 5B).

The subject of data set [2] is blood vessels (CD31) in orthotopic colorectal tumor tissues. Put plainly: Biodistribution of FITC-conjugated peptide, colorectal cancer model. In kind it is in vivo, mouse. The following applies: 300 nmol i.v., 1 hour circulation. The method, then:
To further confirm whether the selective phage homing was due to the CTPSPFSHC (SEQ ID NO:1) peptide (TCP-1), chemically synthetic FITC-conjugated TCP-1 or control peptide was intravenously injected into tumor-bearing mice to study the location of the peptide. Biodistribution of fluorescein-conjugated peptides was examined after i.v. injection of the peptide (300 nmol in 300 μl PBS) into the tail vein of a tumor-bearing mouse. The peptide was allowed to circulate for 1 hour.
Tumor and control tissues were collected and frozen sections prepared as described above in Example 1. Blood vessels were stained by CD31 antibody (secondary antibody conjugated Alexa-568). […] FITC-labeled control peptide was not found in the tumor tissues (FIG. 4A). Taken together with the immunolocalization analyses of TCP-1 phage homing, the peptide localization data confirmed that TCP-1 peptide homed specifically to blood vessels in tumor tissues but not to the vasculature of control organs.

Data set [3] deals with blood vessels (CD31) in gastric cancer tissues. The data set is described as follows: Biodistribution of FITC-conjugated peptide, gastric cancer model. In kind it is in vivo, mouse. The following applies: 300 nmol i.v., 1 hour circulation. The method, then:
To further confirm whether the selective phage homing was due to the CTPSPFSHC (SEQ ID NO:1) peptide (TCP-1), chemically synthetic FITC-conjugated TCP-1 or control peptide was intravenously injected into gastric cancer-bearing mice to study the location of the peptide. Biodistribution of fluorescein-conjugated peptides was examined after i.v. injection of the peptide (300 nmol in 300 μl PBS) into the tail vein of a gastric cancer-bearing mouse. The peptide was allowed to circulate for 1 hour.
Tumor and control tissues were collected and frozen sections prepared as described above. Blood vessels were stained by CD31 antibody (secondary antibody conjugated Alexa-568). […] FITC-labeled control peptide was not found in the tumor tissues (FIG. 10 bottom). Taken together with the immunolocalization analyses of TCP-1 phage homing, the peptide localization data confirmed that TCP-1 peptide also homed specifically to blood vessels in gastric cancer tissues but not to the vasculature of control organs.

Data set [4] has as its system blood vessels of human colon and rectal adenocarcinoma tissues. The data set is described as follows: Peptide binding to tissue sections from human cancer. The following applies: for binding to blood vessels of cancer tissues / binding to vasculature of normal colon tissues: 10 μmol/L, 1 hour, 37° C., human biopsy sections. On the procedure: To establish the ability of TCP-1 to selectively bind to the vasculature of human tumors, human biopsy samples were studied. They were double stained and images photographically overlayed to determine tissue specificity. More specifically, multiple human biopsy samples containing both colon adenocarcinoma and normal colonic tissue were snap frozen, embedded in OCT, cut into 5 μm sections, and then arrayed on slides. The slides were incubated with 10 μmol/L FITC-CTPSPFSHC (SEQ ID NO:2) or FITC-CVQTAQLLC (SEQ ID NO:3) for 1 hour at 37° C., washed three times with PBS, fixed with 4% paraformaldehyde. Blood vessels were stained with mouse anti-human CD31 monoclonal antibody and Alexa Fluor 568 goat anti-mouse IgG as above described.
The positive binding was usually found in tumor tissues at more advanced stages (in terms of lymphovascular permeation, T staging, N staging, and overall Dukes' staging).

The test system of data set [5] is colon 26 cells. The data set is described as follows: In vitro cell viability assay (MTT assay), colon 26. In kind it is cell-based, murine. The following applies: colon 26, 6 h, increasing concentrations. On the procedure: (§1) Cell lines and cell culture: The murine colorectal cancer cell colon 26, human colon cancer cell SW1116 were cultured at 37° C. in a humidified atmosphere containing 5% CO2, in RPMI-1640 medium supplemented with 2 g/L sodium bicarbonate, 100 units/ml penicillin, […] streptomycin and 10% FBS.
(§2) In vitro cell viability assay (MTT assay): Cell viability was assessed by MTT assay, which depends on the ability of viable cells to reduce the MTT to a colored formazan product. In brief, cells (10^4 cells per well) were seeded in 96-well microculture plates overnight for attachment, and then incubated with increasing concentrations of the peptides CTPSPFSHC-GG-D(KLAKLAK)2 or CTPSPFSHC (SEQ ID NO:1) or D(KLAKLAK)2 in 100 μl of 1% FBS in DMEM for 6˜48 hours at 37° C. In the next step, MTT was added to each well, and the cells were further incubated for 3 h. The colored formazan product was determined photometrically at 570 nm in a multi-well plate reader (Bio-Rad).
(§3) TCP-1 conjugate and induction of apoptosis in colorectal cancer cells: Next, in order to examine whether the TCP-1 peptide could serve as a drug carrier into cancer cells, we synthesized a chimeric peptide of TCP-1 peptide to a proapoptotic peptide D(KLAKLAK)2, which disrupts mitochondrial membranes upon receptor-mediated cell internalization and causes programmed cell death. Increasing concentrations of TCP-1 conjugate (TCP-GG-D(KLAKLAK)2), equimolar TCP-1 or D(KLAKLAK)2 were incubated with colon 26 or SW1116 cells at 37° C. Cell viability was assessed after 6 h (colon 26) and 48 h (SW1116). The effect of TCP-1 conjugate on the cell viability was determined and compared respectively with TCP-1 or D(KLAKLAK)2 alone.
(Tetrazolium dyes change colour on reduction, which living cells bring about.)

Data set [6] has as its system SW1116 cells. Put plainly: In vitro cell viability assay (MTT assay), SW1116. The data set is classed as cell-based, human. The following applies: SW1116, 48 h, increasing concentrations. On the procedure:
as §1, §2, §3

For data set [7], the system named is tumor vasculature of orthotopic colorectal cancer. The data set is described as follows: Therapeutic treatment with proapoptotic conjugate, cleaved caspase 3/CD31 staining. The data set is classed as in vivo. The source says:
We conjugated TCP-1 with a pro-apoptotic peptide, D(KLAKLAK)2, which disrupts mitochondrial membranes upon receptor-mediated cell internalization and causes programmed cell death. This approach has been successfully employed for targeted apoptosis induction in angiogenic endothelial cells, tumor lymphatics and the vasculature of white fat. See: Zhang L, Giraudo E, Hoffman J A, Hanahan D, and Ruoslahti E (2006). Lymphatic zip codes in premalignant lesions and tumors. Cancer Res 66, 5696-5706; Kolonin M G, Saha P K, Chan L, Pasqualini R, and Arap W (2004). Reversal of obesity by targeted ablation of adipose tissue. Nat Med 10, 625-632; and, Ellerby H M, Arap W, Ellerby L M, Kain R, Andrusiak R, Rio G D, Krajewski S, Lombardo C R, Rao R, Ruoslahti E, et al. (1999). Anti-cancer activity of targeted pro-apoptotic peptides. Nat Med 5, 1032-1038. All-D enantiomer D(KLAKLAK)2 was used to avoid degradation by proteases. Ellerby H M, et al., (1999) Nat Med 5, 1032-1038.
Mice bearing orthotopic colorectal cancer were randomized into three groups. The therapeutic group was i.v. injected 260 μg/dose/mouse of the conjugated CTPSPFSHC-GG-D(KLAKLAK)2 [CDK]. Control groups received an equimolar mixture of CTPSPFSHC (SEQ ID NO:1) and D(KLAKLAK)2 [DKK], or PBS alone once every three days. Treatment was terminated 7 days after the first peptide administration as described in Kolonin M G, Saha P K, Chan L, Pasqualini R, and Arap W (2004). Reversal of obesity by targeted ablation of adipose tissue. Nat Med 10, 625-632 and Giordano R J, Landenranta J, Zhen L, Chukwueke U, Petrache I, Langley R R, Fidler I J, Pasqualini R, Tuder R M, and Arap W (2008). Targeted induction of lung endothelial cell apoptosis causes emphysema-like changes in the mouse. J Biol Chem 283, 29447-29460.
Tumors and control organs were dissected at the termination of the experiment. Histologic analysis was done to evaluate the density of tumor blood vessels. Apoptotic vascular endothelial cells were visualized by double staining with anticleaved caspase-3 and CD31 antibodies. […]

The mark [8] stands for this setting: 500 nmol i.v., 20 h after injection.

For the substance “FITC-CVQTAQLLC ({FITC}-CVQTAQLLC; cysteine pairing not given here) [FITC-labeled control peptide, FITC-conjugated negative control peptide, reference compound]”, in data set [1] (setting [8]), the “fluorescent signal in other control tissues” value is “no specific fluorescent signal” and the “fluorescent signal in tumors, whole tissue under blue light” value is “no fluorescent signal”. The “peptide fluorescence in vasculature of tumor tissue (histological analysis)” value in data set [1] (20 h after injection) is recorded as “not detectable”. The “peptide localization in tumor tissues (CD31 co-staining)” value (shortened to “peptide localization in tumor tissues”) in data set [2] is “not found”. For the same substance, the “peptide localization in tumor tissues” value in data set [3] is “not found”. Further, in data set [4], the “binding to blood vessels of cancer tissues” value is recorded as “did not interact” and the “binding to vasculature of normal colon tissues” value was “did not interact”.
“FITC-CTPSPFSHC ({FITC}-CTPSPFSHC; cysteine pairing not given here) [FITC-labeled TCP-1, FITC-conjugated TCP-1 peptide for homing validation]”: in data set [1] (setting [8]), the “fluorescent signal in other control tissues” value is “no specific fluorescent signal” and the “fluorescent signal in tumors, whole tissue under blue light” value was “strong fluorescent signal”. Further, in data set [1] (500 nmol i.v., 20 hour circulation), the “smallest tumor size detected” value is 2 mm. In data set [2], the “peptide localization in control organs” value is listed as “not detectable” and the “peptide localization in tumor tissues” value is listed as “colocalised with CD31”. In addition, in data set [3], the “peptide localization in control organs” value is given as “not detectable” and the “peptide localization in tumor tissues” value is “colocalised with CD31”. Further, in data set [4], the “binding to blood vessels of cancer tissues” value is “bound” and the “binding to vasculature of normal colon tissues” value is “not to vasculature of normal colon tissues”. In data set [4] (positive/total patients), the “colon adenocarcinomas recognized by the peptide” value is on record as 5/10 and the “rectal adenocarcinomas recognized by the peptide” value is reported as 6/11.
For D(KLAKLAK)2 [reference compound], the “effect on cell viability” value in data set [5] and in data set [6] was “much weaker toxic effects” throughout.
Turning to “CTPSPFSHC-GG-D(KLAKLAK)2 [TCP-GG-D(KLAKLAK)2]”, the “effect on cell viability” value in data set [5] is “inhibited the proliferation of colon 26 and SW1116 cells more efficiently than D(KLAKLAK)2 alone”; in data set [6], “inhibited the proliferation of colon 26 and SW1116 cells more efficiently than D(KLAKLAK)2 alone”. For the same substance, in data set [7] (260 μg/dose/mouse i.v. once every three days, 7 days, vs PBS or uncoupled mixture), the “vasculature endothelial cells expressing active caspase 3 in tumors” value is “obvious increase”. The “quantification of active caspase 3: apoptotic cells in the tumor vasculature” value in data set [7] (260 μg/dose/mouse i.v., compared to the other two groups) is reported as “remarkable increased number of apoptotic cells”. For the same substance, in data set [7] (mouse, in vivo), the “apoptotic vasculature in normal colon tissues and brain tissues” value is “hardly active caspase-3 positive cells”.
